Series [1] can be described thus: Retention of Pc IV in tumor tissue (pharmacokinetic data). The format is in vivo. Particulars: after administration.
Series [2] relates to human skin keratome biopsies. As to the kind of experiment: Penetration of topically applied PcIV and salts into human skin, confocal fluorescence microscopy. It is filed as in vitro ADME. Particulars: for laser transmission at which maximum fluorescence was detectable: fluorescence inversely proportional to laser transmission, listed as PcIV. As for the experimental part: Human skin absorption of PcIV was analyzed by fluorescence confocal microscopy. PcIV fluorescence, upon activation with a HeNe laser at 633 nm, was visualized using a 650 long pass filter. Briefly, 0.4 mm thick human keratomes were removed from the gluteal region of healthy volunteers and divided into 1.5 cm×1.5 cm squares of skin. Upon application of PcIV to the epidermis in a vehicle of ethanol and propylene glycol, visualization of penetration of PcIV was achieved by fluorescence. Pc 4 was then prepared as PcIV-pyruvate and PcIV-HCl and applied in the same vehicle as Pc 4 to the epidermis. Three concentrations, namely, 0.1 mg/mL, 0.05 mg/mL, and 0.01 mg/mL were tested per PcIV formulation. Skin was incubated at 37° C. for 1, 2, and 4 hours, along with vehicle controls. […] Maximum PcIV fluorescence was detectable using laser transmission of 3% for the 0.1 mg/mL and 30% for the 0.01 mg/mL. Both PcIV.pyruvate and PcIV.HCl however could be visualized with a laser transmission of 2-3% for the 0.1 mg/mL and 7-9% for the 0.01 mg/mL concentrations.
The ability of PcIV and the newly prepared PcIV salts (HCl and pyruvate) to penetrate into the epidermis of keratome derived biopsies was examined. The time course of penetrance as well as the effect of dose of the PcIV compounds were evaluated. PcIV and the PcIV.HCl and PcIV.pyruvate salts were resuspended in ethanol (100%, 1 part PcIV, 499 parts ethanol) and then diluted to final concentrations in a 30% Propylene Glycol 70% Ethanol mixture.
Keratome biopsies of normal skin were obtained from normal volunteers after written consent according to UHHS IRB protocol # 05-95-03. To date, seven experiments have been performed. The range of age for volunteers was 20-40 yrs. Individuals represented Fitzpatrick skin types between I-III. Skin biopsies were held in PBS following the keratome procedure until processed for PcIV Application (less than 1 hr). The keratome skin samples (1.5 cm^2) were overlayed onto sterile gauze in 80 mm tissue culture petri dishes epidermal side down. PcIV compounds were then applied to the corners of the sterile gauze and allowed to “wick” through the gauze and contact the epidermis of the skin for the indicated times. Following the incubation, the tissue was removed from the gauze and washed three times in phosphate buffered saline and held, in PBS, until analysis by confocal microscopy. Confocal images were acquired using a 20×N.A. 0.5 water immersion objective on a Zeiss 510 confocal microscope. PcIV fluorescence was elicited using a 633 nm wavelength for excitation, and collected with a 633 nm dichroic mirror and 650 nm long-pass filter.

Series [3] has as its system Chinese hamster V79-379 lung fibroblasts. In words: Growth delay of V79 cultures after phthalocyanine and red light. It is filed as cell-based. The following applies: V79 cells, 0.5 μM, 18 hours, 12 kJ/m^2 red light; three day observation. As for the experimental part: At the time of light exposure, there were approximately 1.5×10^5 cells per 25 cm^2 flask. Following irradiation, the HBSS was replaced by 10 mL of fresh complete growth medium, and the cultures were returned to the 37° C. incubator. At various times before and after irradiation, duplicate cultures were trypsinized and counted. Controls included untreated cells and cells treated with light alone or drug alone. In addition, in each experiment, the drug to be tested was compared to a standard treatment, i.e. 1 μM AlPcCl for 18 hours followed by 12 kJ/m^2 light.
The inhibition of V79 culture growth was measured during a three day period following red light irradiation (12 kJ/m^2) of phthalocyanine-pretreated cells. With each of the active compounds, as well as with AlPcCl, there was an initial decrease in cell density, as dead cells became detached from the monolayer. Thereafter, the cell number per flask increased, as living cells grew and divided. The time for the cell density to recover to the level at the time of light exposure was considered the growth delay. […] The ratio of the growth delay for the test photosensitizer and the growth delay for AlPcCl measured in the same experiment is recorded in Table 1. There was less inhibition of culture growth when cells were exposed to compounds III, V, or VI as expected from the poor cellular uptake of these drugs.

The subject of series [4] is skin lesions (early mycosis fungoides, squamous cell carcinoma). In words: Topical PcIV-PDT of skin lesions in patients. It is filed as in vivo, human. As for the experimental part:
PcIV solution concentrations were either 0.01 mg/mL or 0.05 mg/mL. One hour after administration of the PcIV solution, the skin lesions were exposed to a 675 nm laser, dose ranging from 50-100 J/cm^2. […] Two patients felt some heat over the treatment site during the first few minutes of laser exposure. […] Because Pc 4 is a photosensitizer, individual patient sun sensitivity was monitored by serial phototesting using solar simulated radiation. […] (see FIGS. 10a and 10b).

Series [5] has as its system chemically-induced benign skin papillomas. As to the kind of experiment: PDT of chemically induced skin tumors. The format is in vivo, SENCAR mice. Particulars: 0.5 and 1.0 mg/kg i.p. in DPPC liposomes. As for the experimental part: 6-week-old female SENCAR mice received a single topical application of 5 μg DMBA in 0.2 mL acetone on the dorsal skin as tumor initiator. One week later, the animals were started on twice-weekly topical applications of 1 μg TPA in 0.2 mL acetone as tumor promoter. All of the animals developed tumors at 12 weeks. Mice that developed 4-5 tumors per animal averaging 5-8 mm in diameter and 2-5 mm in thickness were used. Pc IV, entrapped in DPPC liposomes was administered intraperitoneally at doses of either 0.5 or 1.0 mg/kg and 24 hrs later the tumor area was illuminated with light from an argon pumped dye laser tuned at 675 nm for a total light dose of 135 j/cm^2 (75 mW/cm^2). All possible controls were included; either the animals were untreated, treated only with laser light or treated only with Pc IV alone.

The mark [6] stands for this setting: eleven patients, topical PcIV-PDT.

Turning to `CN(C)CCC[Si](C)(C)O[Si]1(O)n2c3c4ccccc4c2N=C2N=C(N=c4c5ccccc5c(n41)=NC1=NC(=N3)c3ccccc31)c1ccccc12` (centres unmarked) [Compound IV, HOSiPcOSi(CH3)2(CH2)3N(CH3)2], in series [1], the “retention in tumor tissue” value is “retained in tumor tissue even after 7 days”. Moreover, in series [2] (0.01 mg/mL in ethanol and propylene glycol), the “laser transmission at which maximum fluorescence was detectable” value was found to be 30%. In series [2] (0.1 mg/mL in ethanol and propylene glycol), the “laser transmission at which maximum fluorescence was detectable” value was 3%. Also, in series [2] (0.01-0.1 mg/mL, 1, 2 and 4 hours at 37° C.), the penetration into skin entry was “successfully penetrated the skin to the basal layer in a dose dependent fashion”. For the same compound, the “lowest concentration tested at which penetration is demonstrated” value in series [2] (propylene glycol vehicle) turned out to be 0.01 mg/mL. For the same compound, in series [2] (propylene glycol/ethanol vehicle), the “time to effective penetration through intact human stratum corneum” value is recorded as “within one hour”. Further, the “Growth Delay (12 kj/m^2), Efficiency Relative to 1 μM (AlPcCl)” value in series [3] is on record as >3. In series [4] (setting [6]), the “clinical response of lesions (erythema and infiltration)” value was “Two patients showed a minimal decrease in erythema and infiltration of their lesions”; the cures result is reported as “No cures have been achieved to date”. Also, the “TUNEL positivity in lesional skin biopsies” value in series [4] (one patient with some clinical response, 24 hours after treatment) is listed as “increase in TUNEL positivity along the superficial portion of the lesion”. The “changes in sunburn threshold or minimum erythema dose (MED)” value in series [4] (serial phototesting with solar simulated radiation) is listed as “No significant changes were observed”. In series [4] (topical 0.01 or 0.05 mg/mL, 675 nm laser 50-100 J/cm^2 one hour later, up to two weeks), the adverse effects result is “No significant adverse effects were observed”. Also, the “tumor volume after PDT” value in series [5] (675 nm 135 j/cm^2 24 hrs later) is on record as “eventually decreased to 0 volume”. In addition, in series [5] (length of the study 34 days), the tumor return entry was “did not return for the length of the study”.
